{
  "source": "ChEMBL document CHEMBL4814018",
  "about": "“Rationally designed TNF-α inhibitors: Identification of promising cytotoxic agents” (Bioorg Med Chem Lett, 2021)",
  "key": {"BV-2 [1]": {"tested_on": "BV-2", "test": "Cytotoxicity against mouse BV2 cells incubated for 48 hrs by MTT assay", "format": "cell-based", "conditions": "BV-2, 48 h"}, "BV-2 [2]": {"tested_on": "BV-2", "test": "Antiinflammatory activity against mouse BV2 cells assessed as decrease in LPS-induced NO production at 1 to 5 uM pretreated with compound followed by LPS stimulation incubated for 4 to 48 hrs by enzyme immunoassay", "format": "functional, cell-based", "conditions": "dose 1-5 µM, time 4-48 hrs"}, "BV-2 [3]": {"tested_on": "BV-2", "test": "Antiinflammatory activity against mouse BV2 cells assessed as reduction in LPS-induced IL6 production at 1 uM by enzyme immunoassay", "format": "functional, cell-based"}, "BV-2 [4]": {"tested_on": "BV-2", "test": "Antiinflammatory activity against mouse BV2 cells assessed as inhibition of LPS-induced TNFalpha production at 1 uM by enzyme immunoassay", "format": "functional"}},
  "note": "Activity calls are given as the source filed them. The rule behind the calls is not given here.",
  "data": [
    {"smiles": "C=CCn1cc(C2C(Cl)C(=O)N2c2ccc(N3CCOCC3=O)cc2)c2ccccc21", "note": "(stereo unspecified)", "values": [
      {"measurement": "IC50", "setting": "BV-2 [1]", "result": "> 10", "unit": "µM"}
    ]},
    {"smiles": "C#CCn1cc(C2C(Cl)C(=O)N2c2ccc(N3CCOCC3=O)cc2)c2ccccc21", "note": "(stereo unspecified)", "values": [
      {"measurement": "IC50", "setting": "BV-2 [1]", "result": "> 10", "unit": "µM"},
      {"measurement": "Activity", "setting": "BV-2 [2]", "result": "Active"}
    ]},
    {"smiles": "O=C1COCCN1c1ccc(N2C(=O)C(Cl)C2c2cn(Cc3ccc4ccccc4c3)c3ccccc23)cc1", "note": "(stereo unspecified)", "values": [
      {"measurement": "IC50", "setting": "BV-2 [1]", "result": "> 10", "unit": "µM"},
      {"measurement": "Activity", "setting": "BV-2 [3]", "result": "Active"},
      {"measurement": "Activity", "setting": "BV-2 [4]", "result": "Active"}
    ]}
  ]
}
